Reference: US9938335B2, “Glucagon and GLP-1 co-agonist compounds” (Eli Lilly and Company, priority 2015, dated 2018)
Marks after values point to notes of the source that are not given here.

Experiments:
Assay type in all cases: in vivo, mouse
DIO mice (C57BL/6) [1] = assay: Chronic treatment in DIO mice (body weight, fat, food intake)
Protocol: The effects on food intake and body weight/fat are evaluated in DIO mice. Five to six months old DIO mice (C57BL/6) from Taconic Biosciences are used in this study. Animals are individually housed in a temperature-controlled (24° C.) facility with a 12 hour light/dark cycle (lights on 6:00), and free access to food and water. The mice are acclimated to the facility for two weeks. The day before the study start, fat mass is measured by nuclear magnetic resonance (NMR) using an Echo Medical System (Houston, Tex.) instrument. The mice are randomized to treatment groups (N=7/group) based on body weight and fat mass so each group had similar starting mean body weight and fat mass. […] SC injections are made on Day 1, 4, 7, 10, and 13. Body weight and food intake are measured right before each injection throughout the study. Percent changes in body weight are calculated as follows: […]
At the completion of the study, total fat mass is measured again by NMR. Statistics are analyzed using ANOVA with Dunnett's comparison by JMP 6. Significance is denoted at p≤0.05 vs. vehicle.

DIO mice (C57BL/6) [2] = assay: Acute treatment in DIO mice (PCSK9, FGF-21, cholesterol)
Protocol: In order to investigate metabolic pathways involved with the treatment of compounds of the present invention independent of weight loss, compounds are tested in DIO mice (C57BL/6) acutely. The mice used are three to four months old on a high fat diet for at least 4 weeks. Animals are individually housed in a temperature-controlled (24° C.) facility with a 12 hour light/dark cycle (lights on 6:00), and free access to food and water. Vehicle or testing compounds were administered to mice by subcutaneous injection at 16:00 the day before the study day. Animals were sacrificed 16 hours later to collect blood via cardia puncture. Statistics are analyzed using ANOVA with Dunnett's comparison for JMP-6. Significance is denoted at p≤0.05 vs vehicle.
Food intake was decreased to a similar level in all treatment groups, which may indicate that changes in cholesterol, PCSK9 and FGF-21 are food-intake independent.

DIO mice (C57BL/6) [3] = assay: Oral Glucose Tolerance Test (OGTT) in DIO mice; settings: male DIO mice, OGTT (2 g/kg) 16 hours post injection
Protocol: Diet-induced obese (DIO) mouse model is a model of insulin resistance. Five to six months old male DIO mice (C57BL/6) from Taconic Biosciences are used in this study. Animals are individually housed in a temperature-controlled (24° C.) facility with a 12 hour light/dark cycle (lights on 06:00), and free access to food and water. The acclimation period to the facility is two weeks. The day before the study, animals are randomized into groups based on their body weight. That same afternoon, animals are fasted in clean cages and dosed with vehicle (40 mM Tris-HCl, pH 8.0) or test articles by subcutaneous injection. The following morning, 16 hours post the peptide injection, fasting body weights are obtained to calculate glucose doses. Blood samples are taken to measure time zero glucose. Animals are then given an oral gavage of glucose (2 g/kg). Two glucose readings via glucometers were obtained at 15, 30, 60 and 120 minutes post oral glucose. The average of two glucose readings is reported at each time point and an area under the curve is calculated. Statistics were analyzed using ANOVA with Dunnett's comparison by JMP 6; significance is denoted at p≤0.05 vs. vehicle.

[4] = test system: STZ-treated DIO mice (C57BL/6); assay: OGTT in Streptozotocin (STZ)-treated DIO mice; settings: male STZ mice, OGTT (2 g/kg) 16 hours post injection
Protocol: STZ-treated mouse model is a model of early diabetes. Five to six months old male DIO mice (C57BL/6) from Taconic Biosciences are used in this study. Animals are individually housed in a temperature-controlled (24° C.) facility with a 12 hour light/dark cycle (lights on 6:00), and free access to food and water. After two weeks acclimation to the facility, mice are injected intraperitoneally with 50 mg/kg of STZ on Tuesday and Friday. Two weeks post the injection, animals with glucose levels between 180-300 mg/dL at 09:00 are selected for the OGTT study. The day before the study, animals are randomized into groups based on body weight and their glucose levels. Animals are treated with vehicle or testing articles by subcutaneous injection just prior to food removal overnight (16:00). The following morning at 08:00, 16 hours post compound injection, blood samples are taken to measure time zero glucose. Animals are given an oral dose of glucose of 2 g/kg. Glucose is measured 15, 30, 60, and 120 minutes post the oral glucose challenge. Statistics are analyzed using ANOVA with Dunnett's comparison by JMP 6. Significance is denoted at p≤0.05 vs. vehicle.

DIO mice (C57BL/6) [5] = assay: Effects on energy expenditure in DIO mice (indirect calorimetry); settings: for Cumulative Heat (Kcal/kg lean mass/3 day): test article 15 nmol/kg, semaglutide 60 nmol/kg sc every three days
Protocol: Seven to eight months old male DIO mice (C57BL/6) weighing 45-50 g are used in this study to assess the effect of compounds of the present invention on energy metabolism. Animals are individually housed in a temperature-controlled (24° C.) facility with a 12 hour light/dark cycle (lights on 22:00), and free access to food (TD95217)(Teklad) and water. After 2 weeks acclimation to the facility, mice are randomized to treatment groups (N=6/group) based on body weight so each group has similar starting mean body weight. Animals are placed in a PhenoMaster/LabMaster calorimeter (TSE Systems, Chesterfield, Mo.) for 8 days of acclimation.
Heat and […] (RER) are measured by indirect calorimetry as described using an open-circuit calorimetry system. RER is the ratio of the volume of CO2 produced (VCO2) to the volume of O2 consumed (VO2). Heat is calculated with lean body weight considered. The energy expenditure is kcal/kg/3 day and expressed as mean±SEM of 6 mice per group. Statistical significance is assessed by two-way ANOVA followed by Tukey's multiple comparison test.

[6] = 30 nmol/kg sc every three days for 15 days
[7] = 60 nmol/kg sc every three days for 15 days
[8] = 30 nmol/kg sc, 16 hours post dose

For semaglutide [reference compound], the “Body Fat (% change vs. vehicle from Day 1)” value (DIO mice (C57BL/6) [1]; [6]) was −20* %, the “Body Weight (% change vs. vehicle from Day 1)” value (DIO mice (C57BL/6) [1]; [6]) was −8% and the “Body Fat (% change vs. vehicle from Day 1)” value (DIO mice (C57BL/6) [1]; [7]) was −29* %. The “Body Weight (% change vs. vehicle from Day 1)” value (DIO mice (C57BL/6) [1]; [7]) was −12* %, the “Cholesterol (% of vehicle)” value (DIO mice (C57BL/6) [2]; [8]) was 117.6 % of vehicle and the “FGF-21 (% of vehicle)” value (DIO mice (C57BL/6) [2]; [8]) was 75 % of vehicle. The “PCSK9 (% of vehicle)” value (DIO mice (C57BL/6) [2]; [8]) was 115.3 % of vehicle, the “serum cholesterol, PCSK9 and FGF-21 levels” value (DIO mice (C57BL/6) [2]; acute treatment) was “does not decrease serum cholesterol and PCSK9 levels and increase FGF-21 levels” and the “Glucose AUC (% of vehicle)” value (DIO mice (C57BL/6) [3]; 1 nmol/kg sc) was 59* % of vehicle. For the same substance, the “Glucose AUC (% of vehicle)” value (DIO mice (C57BL/6) [3]; 3 nmol/kg sc) was 51* % of vehicle, the “Glucose AUC (% of vehicle)” value (DIO mice (C57BL/6) [3]; 10 nmol/kg sc) was 38* % of vehicle and the “Glucose AUC (% of vehicle)” value ([4]; 1 nmol/kg sc) was 72* % of vehicle. The “Glucose AUC (% of vehicle)” value ([4]; 3 nmol/kg sc) was 53* % of vehicle, the “Glucose AUC (% of vehicle)” value ([4]; 10 nmol/kg sc) was 35* % of vehicle and the metabolic rate (DIO mice (C57BL/6) [5]; DIO mice, chronic treatment) was “no effect on metabolic rate”. For the same substance, the “Cumulative Heat (Kcal/kg lean mass/3 day)” value (“Cumulative Heat” below) (DIO mice (C57BL/6) [5]; Day 1 to Day 4) was 1973 ± 51 Kcal/kg lean mass/3 day, the “Cumulative Heat” value (DIO mice (C57BL/6) [5]; Day 4 to Day 7) was 2018 ± 54 Kcal/kg lean mass/3 day and the “Cumulative Heat” value (DIO mice (C57BL/6) [5]; Day 7 to Day 10) was 2151 ± 48 Kcal/kg lean mass/3 day. For the same substance, the “Cumulative Heat” value (DIO mice (C57BL/6) [5]; Day 10 to Day 13) was 2138 ± 46 Kcal/kg lean mass/3 day.
